These are literature values, as cited in US11400098B2, “Method of treating microbial infections” (priority 2011, dated 2022).

The test system of the series is S. epidermidis. The note with it: background statement.

Consider `O=C(OOC(=O)c1ccccc1)c1ccccc1` [BPO, benzoyl peroxide], for which the “effect on growth of S. epidermidis” value is “strongly suppresses the growth”.
